Test results taken from US12344610B2, “APOL1 inhibitors and methods of use” (Maze Therapeutics, Inc., priority 2022, dated 2025).
Where two headings read alike, the source gives them in different places.

Assays:
Format in all cases: cell-based
[1] = test system: HEK293 clonal cell line overexpressing APOL1 G1; experiment: APOL1 G1 HEK293 cell rescue assay (Example B3); conditions: geometric mean of at least 2 runs, † = single run, ¥ = concentration at 50% rescue estimated (no sigmoidal curve)
Procedure, shortened: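 HEK293 clonal line overexpressing APOL1 G1; EC50 is half-maximal reversal of APOL1-induced cell death. Values are the geometric mean of ≥2 runs on separate days, each run the average of duplicate wells. Where no sigmoidal curve could be fitted, the concentration giving 50% rescue was estimated.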

[2] = test system: Trypanosoma brucei Lister 427 VSG221 with APOL1 G1 recombinant protein; experiment: APOL1 G1 trypanosome cell rescue assay (Example B5); conditions: geometric mean of at least 2 assay runs, † = single assay run
Procedure, shortened: (§1)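 Mature APOL1 (residues 28-398, E. coli-expressed, His-tag removed by TEV) was added as a 2 μg/mL solution to T. brucei Lister 427 VSG221 in modified HMI-9 medium at 250 cells/well, with duplicate 11-point 2-fold compound dilutions (0.4% DMSO). After 20 h at 37° C, 5% CO2, viability was read by CellTiter-Glo luminescence.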

[3] = test system: Trypanosoma brucei Lister 427 VSG221 with APOL1 G2 recombinant protein; experiment: APOL1 G2 trypanosome cell rescue assay (Example B5); conditions: geometric mean of at least 2 assay runs, † = single assay run
Procedure, shortened: as §1

[4] = Homo sapiens, HEK293, HEK293 clonal line overexpressing APOL1 G1
[5] = Trypanosoma brucei, 20 h, read-out: APOL1 G1 Trypanosome Rescue EC50, Trypanosoma brucei Lister 427 VSG221 with APOL1 G1 recombinant protein, 20 hours, CellTiter-Glo
[6] = Trypanosoma brucei, 20 h, read-out: APOL1 G2 Trypanosome Rescue EC50, Trypanosoma brucei Lister 427 VSG221 with APOL1 G2 recombinant protein, 20 hours, CellTiter-Glo

| Structure (SMILES) | EC50 [1, 4] | EC50 [2, 5] | EC50 [3, 6] | EC50 ([1]; HEK293 clonal line overexpressing APOL1 G1) | EC50 ([2]; read-out: APOL1 G1 Trypanosome Rescue EC50, Trypanosoma brucei Lister 427 VSG221 with APOL1 G1 recombinant protein, 20 hours, CellTiter-Glo) | EC50 ([3]; read-out: APOL1 G2 Trypanosome Rescue EC50, Trypanosoma brucei Lister 427 VSG221 with APOL1 G2 recombinant protein, 20 hours, CellTiter-Glo) |
| --- | --- | --- | --- | --- | --- | --- |
| O=C1Nc2ccc(Cl)cc2C12CCN(CCOc1ccc(C3CCCS3(=O)=O)cc1)CC2 (single isomer, unassigned) [Compound 176, (S) or (R)-2-[4-(2-{5-chloro-2-oxo-1,2-dihydrospiro[indole-3,4′-piperidin]-1′-yl}ethoxy)phenyl]-1λ^6-thiolane-1,1-dione] | 157 nM | 177 nM | 44.6 nM | – | – | – |
| O=C1Nc2ccc(Cl)cc2C12CCN(CCOc1ccc(C3CCCS3(=O)=O)cc1)CC2 (single isomer, unassigned) [Compound 177, (R) or (S)-2-[4-(2-{5-chloro-2-oxo-1,2-dihydrospiro[indole-3,4′-piperidin]-1′-yl}ethoxy)phenyl]-1λ^6-thiolane-1,1-dione] | – | – | – | 132 nM | 314 nM | 84.4 nM |
| CS(=O)(=O)c1ccc(OCCN2CCC3(CC2)C(=O)Nc2c(C#N)cc(Cl)cc23)cc1 [Compound 9, 5-chloro-1′-[2-(4-methanesulfonylphenoxy)ethyl]-2-oxo-1,2-dihydrospiro[indole-3,4′-piperidine]-7-carbonitrile] | ~11500 nM | > 4000 nM | 1320 nM | – | – | – |
| CS(=O)(=O)CCCn1ncc2cc(OCCN3CCC4(CC3)C(=O)Nc3ccc(Cl)cc34)ccc21 [Compound 14, 5-chloro-1′-(2-{[1-(3-methanesulfonylpropyl)-1H-indazol-5-yl]oxy}ethyl)-1,2-dihydrospiro[indole-3,4′-piperidin]-2-one] | 476 nM | 488 nM | 127 nM | – | – | – |
| O=C1Nc2ccc(Cl)cc2C12CCN(CCOc1ccc3c(cnn3C3COC3)c1)CC2 [Compound 15, 5-chloro-1′-(2-{[1-(oxetan-3-yl)-1H-indazol-5-yl]oxy}ethyl)-1,2-dihydrospiro[indole-3,4′-piperidin]-2-one] | 279 nM | 342 nM | 124 nM | – | – | – |
| CC(C)n1ncc2cc(OCCN3CCC4(CC3)C(=O)Nc3ccc(Cl)cc34)ccc21 [Compound 16, 5-chloro-1′-(2-{[1-(propan-2-yl)-1H-indazol-5-yl]oxy}ethyl)-1,2-dihydrospiro[indole-3,4′-piperidin]-2-one] | 295 nM | 312 nM | 110 nM | – | – | – |
| O=C1Nc2ccc(Cl)cc2C12CCN(CCOc1ccc(S(=O)(=O)[C@H]3C[C@@H](O)C3)cc1)CC2 [Compound 17, 5-chloro-1′-[2-(4-{[(cis)-3-hydroxycyclobutyl]sulfonyl}phenoxy)ethyl]-1,2-dihydrospiro[indole-3,4′-piperidin]-2-one] | 160 nM | 148 nM | 36.7 nM | – | – | – |
| O=C1CCc2cc(OCCN3CCC4(CC3)C(=O)Nc3ccc(Cl)cc34)ccc2N1C1COC1 [Compound 99, 5-chloro-1′-(2-{[1-(oxetan-3-yl)-2-oxo-1,2,3,4-tetrahydroquinolin-6-yl]oxy}ethyl)-1,2-dihydrospiro[indole-3,4′-piperidin]-2-one] | 205 nM | 346 nM | 90.1 nM | – | – | – |
| CS(=O)(=O)c1ccc(OCCN2CCC3(CC2)C(=O)Nc2ccc(C#N)cc23)cc1C(F)F [Compound 100, 1′-{2-[3-(difluoromethyl)-4-methanesulfonylphenoxy]ethyl}-2-oxo-1,2-dihydrospiro[indole-3,4′-piperidine]-5-carbonitrile] | 134 nM | 113 nM | 25.9 nM | – | – | – |
| CS(=O)(=O)C1(c2ccc(OCCN3CCC4(CC3)C(=O)Nc3ccc(C#N)cc34)cc2)CC1 [Compound 101, 1′-{2-[4-(1-methanesulfonylcyclopropyl)phenoxy]ethyl}-2-oxo-1,2-dihydrospiro[indole-3,4′-piperidine]-5-carbonitrile] | 248 nM | 200 nM | 69.4 nM | – | – | – |
| CS(=O)(=O)C1(c2ccc(OCCN3CCC4(CC3)C(=O)Nc3ccc(Cl)cc34)cc2)CC1 [Compound 102, 5-chloro-1′-{2-[4-(1-methanesulfonylcyclopropyl)phenoxy]ethyl}-1,2-dihydrospiro[indole-3,4′-piperidin]-2-one] | 111 nM | 50.5 nM | 18 nM | – | – | – |
| CN1c2ccc(OCCN3CCC4(CC3)C(=O)Nc3ccc(Cl)cc34)cc2CCS1(=O)=O [Compound 103, 6-(2-{5-chloro-2-oxo-1,2-dihydrospiro[indole-3,4′-piperidin]-1′-yl}ethoxy)-1-methyl-3,4-dihydro-1H-2λ^6,1-benzothiazine-2,2-dione] | 124 nM | 170 nM | 43.7 nM | – | – | – |
| CN1c2ccc(OCCN3CCC4(CC3)C(=O)Nc3ccc(C#N)cc34)cc2CCS1(=O)=O [Compound 104, 1′-{2-[(1-methyl-2,2-dioxo-3,4-dihydro-1H-2λ^6,1-benzothiazin-6-yl)oxy]ethyl}-2-oxo-1,2-dihydrospiro[indole-3,4′-piperidine]-5-carbonitrile] | 356 nM | 726 nM | 184 nM | – | – | – |
| N#Cc1ccc2c(c1)C1(CCN(CCOc3ccc4c(c3)CCC(=O)N4CC(F)F)CC1)C(=O)N2 [Compound 105, 1′-(2-{[1-(2,2-difluoroethyl)-2-oxo-1,2,3,4-tetrahydroquinolin-6-yl]oxy}ethyl)-2-oxo-1,2-dihydrospiro[indole-3,4′-piperidine]-5-carbonitrile] | 175 nM | 274 nM | 75.2 nM | – | – | – |
| O=C1CCc2cc(OCCN3CCC4(CC3)C(=O)Nc3ccc(Cl)cc34)ccc2N1CC(F)F [Compound 106, 5-chloro-1′-(2-{[1-(2,2-difluoroethyl)-2-oxo-1,2,3,4-tetrahydroquinolin-6-yl]oxy}ethyl)-1,2-dihydrospiro[indole-3,4′-piperidin]-2-one] | 122 nM | 91.8 nM | 23.4 nM | – | – | – |
| CS(=O)(=O)c1ccc(OCCN2CCC3(CC2)C(=O)Nc2ccc(C#N)cc23)cc1C(F)(F)F [Compound 107, 1′-{2-[4-methanesulfonyl-3-(trifluoromethyl)phenoxy]ethyl}-2-oxo-1,2-dihydrospiro[indole-3,4′-piperidine]-5-carbonitrile] | 120 nM | 93.5 nM | 23 nM | – | – | – |
| CS(=O)(=O)c1ccc(OCCN2CCC3(CC2)C(=O)Nc2ccc(Cl)cc23)cc1C(F)(F)F [Compound 108, 5-chloro-1′-{2-[4-methanesulfonyl-3-(trifluoromethyl)phenoxy]ethyl}-1,2-dihydrospiro[indole-3,4′-piperidin]-2-one] | 49.7 nM | 30.7 nM | 9.22 nM | – | – | – |
| CS(=O)(=O)C1(c2ccc(OCCN3CCC4(CC3)C(=O)Nc3ccc(C#N)cc34)cc2)COC1 [Compound 109, 1′-{2-[4-(3-methanesulfonyloxetan-3-yl)phenoxy]ethyl}-2-oxo-1,2-dihydrospiro[indole-3,4′-piperidine]-5-carbonitrile] | 321 nM | 385 nM | 98 nM | – | – | – |
| Cc1cc(OCCN2CCC3(CC2)C(=O)Nc2ccc(Cl)cc23)ccc1S(C)(=O)=O [Compound 110, 5-chloro-1′-[2-(4-methanesulfonyl-3-methylphenoxy)ethyl]-1,2-dihydrospiro[indole-3,4′-piperidin]-2-one] | 100 nM | 87.7 nM | 26.1 nM | – | – | – |
| Cc1cc(OCCN2CCC3(CC2)C(=O)Nc2ccc(C#N)cc23)ccc1S(C)(=O)=O [Compound 111, 1′-[2-(4-methanesulfonyl-3-methylphenoxy)ethyl]-2-oxo-1,2-dihydrospiro[indole-3,4′-piperidine]-5-carbonitrile] | 246 nM | 362 nM | 105 nM | – | – | – |
| O=C1Nc2ccc(Cl)cc2C12CCN(CCOc1ccc(S(=O)(=O)C(F)F)cc1)CC2 [Compound 112, 5-chloro-1′-[2-(4-difluoromethanesulfonylphenoxy)ethyl]-1,2-dihydrospiro[indole-3,4′-piperidin]-2-one] | 77.5 nM | 69.6 nM | 18.3 nM | – | – | – |
| N#Cc1ccc2c(c1)C1(CCN(CCOc3ccc(S(=O)(=O)C(F)F)cc3)CC1)C(=O)N2 [Compound 113, 1′-[2-(4-difluoromethanesulfonylphenoxy)ethyl]-2-oxo-1,2-dihydrospiro[indole-3,4′-piperidine]-5-carbonitrile] | 176 nM | 154 nM | 46.7 nM | – | – | – |
| O=C1CCc2cc(OCCN3CCC4(CC3)C(=O)Nc3ccc(Cl)cc34)ccc2N1[C@H]1C[C@@H](O)C1 [Compound 114, 5-chloro-1′-[2-({2-oxo-1-[(cis)-3-hydroxycyclobutyl]-1,2,3,4-tetrahydroquinolin-6-yl}oxy)ethyl]-1,2-dihydrospiro[indole-3,4′-piperidin]-2-one] | 128 nM | 104 nM | 38 nM | – | – | – |
